{"source": "patent US7053052B2", "about": "“Therapies involving mutated heat shock transcription factor” (priority 1997, dated 2006)", "key": {"HepG2 cells": {"test_system": "HepG2 cells", "test": "Mortality from exposure to cyclophosphamide (LDH release, mortality)", "details": "cyclophosphamide 20 mM"}, "HeLa-CAT cells": {"test_system": "HeLa-CAT cells", "test": "Rates of protein and DNA synthesis in HSF1(+)-expressing cells (3H-leucine, 3H-thymidine incorporation)", "assay_type": "cell-based, human", "details": "day 2", "procedure": "CAT assays were performed using the chromatographic assay of Gorman, C. M. et al., Mol. Cell. Biol., 2:1044–1051 (1982)). DNA replication was assessed by a standard ^3H-thymidine incorporation assay. In most experiments, including all western blot assays, standardization was based on protein content. All protein determinations were made using the Bradford method. In a few experiments involving sorted cells, standardization was based on cell numbers. All experiments were repeated at least twice, and, in most cases, each data point was derived from assays of 3–5 parallel samples.\nProtein synthesis dropped to about 10% of the normal rate during heat shock but, after a 1 hour recovery period, returned to pre-shock level in HSF1(+)-expressing but not control cells. […] Fluorescence-activated cell sorting and analyses of DNA content were performed on a FACStar Plus machine (Becton-Dickinson, San Jose, Calif.) configured as described elsewhere (Parks, D. R. et al., In: The Handbook of Experimental Immunology, 4th Edition. Vol. 29. pp. 1–29, 1986). Excitation wave length was 488 nm, and detection lengths were 650 nm (long pass) for propidium iodide and 520 nm (narrow band) for fluorescence by GFP. Extracts from sorted cells were analyzed by western blot. mutHSF was detected in cells sorted as positive for GFP, but not in cells sorted as negative compare. […]"}, "rodent cell lines": {"test_system": "rodent cell lines", "test": "hsp overexpression in rodent cell lines", "assay_type": "cell-based", "details": "several rodent cell lines"}}}
{"substance": "human HSF1d202–316 [HSF1(+)]", "values": [{"measurement": "reduction of mortality by LDH leakage assay", "setting": "HepG2 cells", "value": 43, "unit": "%"}, {"measurement": "reduction of cyclophosphamide-caused mortality", "setting": "HepG2 cells; 24 hour", "value": 55, "unit": "%"}, {"measurement": "reduction of DNA replication (3H-thymidine incorporation) compared to control cells", "setting": "HeLa-CAT cells", "value": "4–5 fold"}, {"measurement": "pattern of hsp overexpression", "setting": "rodent cell lines", "value": "hsp90 and, to a lesser extent, hsp25 were clearly overexpressed; the rate of hsp70 synthesis was only marginally enhanced"}]}
